Data from US20060069132A1, “Azolecarboxamide herbicides” (priority 2004, published 2006).

What was measured:
pigweed = assay: Test B pre-/postemergence herbicide test; type: in vivo, Amaranthus retroflexus
How it was run: (§1)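 Pre: seeds sown, then sprayed. Post: 1–4-leaf plants (2–18 cm) sprayed at the same time. Paddy: flooded, treated at 2-leaf stage. Formulation: non-phytotoxic solvent with surfactant. Greenhouse 13–15 days; visual 0–100 score relative to controls.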

[1] = tested on: small flower umbrella sedge; assay: Test B flooded paddy test; type: in vivo, Cyperus difformis; settings: scale 0 to 100 (0 no effect, 100 complete control)
How it was run: (§2)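 Visual control ratings, 0–100 versus untreated controls, taken after 13 to 15 days in the greenhouse. Blackgrass received a postemergence spray at the 1- to 4-leaf stage (2–18 cm); ducksalad, umbrella sedge and barnyardgrass were flooded-paddy treated at 2 leaves.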

lambsquarters = assay: Test B pre-/postemergence herbicide test; type: in vivo, Chenopodium album
How it was run: as §1

giant foxtail [2] = assay: Test A pre-/postemergence herbicide test; type: in vivo, Setaria faberi; settings: for Plant response rating, Foxtail, Giant: Postemergence; for Foxtail, Giant plant response rating: Preemergence
How it was run: (§3)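 Plants are held in greenhouse about ten days after treatment, then compared with untreated controls and scored 0 (no effect) to 100 (complete control). Preemergence dosing is a directed soil spray on sown sandy loam; postemergence dosing is spray to runoff at 2–10 cm height.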

velvetleaf [3] = assay: Test B pre-/postemergence herbicide test; type: in vivo, Abutilon theophrasti
How it was run: as §1

barnyardgrass [4] = assay: Test B pre-/postemergence herbicide test; type: in vivo, Echinochloa crus-galli
How it was run: (§4)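 Response was scored visually 13 to 15 days after treatment against untreated greenhouse controls, 0 meaning no effect and 100 complete control. Formulations (solvent mixture plus surfactant) went onto soil after planting, onto foliage of 1- to 4-leaf plants, and onto 2-leaf plants in a flooded paddy set including rice and barnyardgrass.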

barnyardgrass [5] = assay: Test A pre-/postemergence herbicide test; type: in vivo, Echinochloa crus-galli; settings: for Plant response rating, Barnyardgrass: Postemergence; for Barnyardgrass plant response rating: Preemergence
How it was run: as §3

wheat = assay: Test B postemergence herbicide test; type: in vivo, Triticum aestivum; set-up: key to Wheat plant response rating: 0 = no effect, 100 = complete control
How it was run: (§5)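 Visual ratings, 0 (no effect) to 100 (complete control), made versus controls after 13–15 d greenhouse. Paddy plants treated at 2-leaf stage; postemergence plants at 1- to 4-leaf stage, 2–18 cm tall.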

barnyardgrass [6] = assay: Test B flooded paddy test; type: in vivo, Echinochloa crus-galli; settings: scale 0 to 100 (0 no effect, 100 complete control)
How it was run: as §2

redroot pigweed = assay: Test A pre-/postemergence herbicide test; type: in vivo, Amaranthus retroflexus; settings: for Plant response rating, Pigweed: Postemergence; for Pigweed plant response rating: Preemergence
How it was run: as §3

ducksalad = assay: Test B flooded paddy test; type: in vivo, Heteranthera limosa; settings: scale 0 to 100 (0 no effect, 100 complete control)
How it was run: as §2

blackgrass = assay: Test B postemergence herbicide test; type: in vivo, Alopecurus myosuroides
How it was run: as §2

Surinam grass = assay: Test B pre-/postemergence herbicide test; type: in vivo, Urochloa decumbens
How it was run: as §1

corn = assay: Test B pre-/postemergence herbicide test; type: in vivo, Zea mays
How it was run: as §1

morningglory [7] = assay: Test A pre-/postemergence herbicide test; type: in vivo, Ipomoea spp.; settings: for Plant response rating, Morningglory: Postemergence; for Morningglory plant response rating: Preemergence
How it was run: as §3

giant foxtail [8] = assay: Test B pre-/postemergence herbicide test; type: in vivo, Setaria faberi
How it was run: as §1

velvetleaf [9] = assay: Test A pre-/postemergence herbicide test; type: in vivo, Abutilon theophrasti; settings: for Plant response rating, Velvetleaf: Postemergence; for Velvetleaf plant response rating: Preemergence
How it was run: as §3

large crabgrass [10] = assay: Test A pre-/postemergence herbicide test; type: in vivo, Digitaria sanguinalis; settings: for Plant response rating, Crabgrass, Large: Postemergence; for Crabgrass, Large plant response rating: Preemergence
How it was run: as §3

morningglory [11] = assay: Test B pre-/postemergence herbicide test; type: in vivo, Ipomoea coccinea
How it was run: as §4

cocklebur = assay: Test B pre-/postemergence herbicide test; type: in vivo, Xanthium strumarium
How it was run: as §4

wild oat = assay: Test B postemergence herbicide test; type: in vivo, Avena fatua
How it was run: as §5

rice = assay: Test B flooded paddy test; type: in vivo, Oryza sativa; settings: scale 0 to 100 (0 no effect, 100 complete control)
How it was run: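 Plants grow to 1- to 4-leaf stage (2–18 cm) for postemergence spraying, or to 2-leaf stage for the paddy test. Formulated compound is applied. Greenhouse holding lasts 13–15 days. Response is scored visually relative to controls, 0 no effect to 100 complete control; a dash means no result.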

large crabgrass [12] = assay: Test B pre-/postemergence herbicide test; type: in vivo, Digitaria sanguinalis
How it was run: as §1

[13] = Postemergence, 500 g ai/ha, visual rating after 13 to 15 days, scale 0 (no effect) to 100 (complete control)
[14] = Preemergence, 500 g ai/ha, scale 0 to 100
[15] = preemergence, 125 g ai/ha, 0 to 100 scale, 0 is no effect, 100 is complete control
[16] = 1000 g ai/ha, visual rating, 13 to 15 days
[17] = Postemergence, 125 g ai/ha, scale 0 (no effect) to 100 (complete control)
[18] = 500 g ai/ha, 0 to 100 scale, 0 no effect, 100 complete control
[19] = 2000 g ai/ha, 0 to 100 scale, 0 no effect, 100 complete control
[20] = 500 g ai/ha, visual rating, 0 to 100 scale (0 no effect, 100 complete control)
[21] = Postemergence, 250 g ai/ha, scale 0 (no effect) to 100 (complete control)
[22] = postemergence, 62 g ai/ha, scale 0 to 100
[23] = Postemergence, 500 g ai/ha, scale 0 (no effect) to 100 (complete control)
[24] = postemergence, 125 g ai/ha, scale 0 to 100

CCN(CC)C(=O)c1cccc(NC(=O)c2cc(C(C)(C)C)nn2CCF)c1 [Compound 36]
95: Pigweed plant response rating (redroot pigweed; [20])
10: Blackgrass plant response rating (blackgrass; [17]) | Plant response rating, Surinam Grass (Surinam grass; [13]) | Plant response rating, Surinam Grass (Surinam grass; [15]) | Corn plant response rating (corn; [14]) | Plant response rating, Morningglory (morningglory [7]; [18]) | Plant response rating, Morningglory (morningglory [7]; [19]) | Plant response rating, Crabgrass, Large (large crabgrass [10]; [18]) | Plant response rating, Crabgrass, Large (large crabgrass [10]; [19]) | Crabgrass, Large plant response rating (large crabgrass [10]; [20]) | Morningglory plant response rating (morningglory [11]; [14]) | Plant response rating, Morningglory (morningglory [11]; [15])
5: Foxtail, Giant plant response rating (giant foxtail [2]; [20])
70: Barnyardgrass plant response rating (barnyardgrass [6]; [16]) | Morningglory plant response rating (morningglory [7]; [19]) | Crabgrass, Large plant response rating (large crabgrass [10]; [19])
45: Barnyardgrass plant response rating (barnyardgrass [5]; [20])
60: Sedge, Umbrella plant response rating [1, 16]
35: Plant response rating, Foxtail, Giant (giant foxtail [2]; [19]) | Plant response rating, Barnyardgrass (barnyardgrass [5]; [18])
80: Lambsquarters plant response rating (lambsquarters; [17]) | Plant response rating, Lambsquarters (lambsquarters; [15]) | Barnyardgrass plant response rating (barnyardgrass [4]; [14]) | Plant response rating, Barnyardgrass (barnyardgrass [5]; [19]) | Plant response rating, Pigweed (redroot pigweed; [18])
40: Plant response rating, Velvetleaf (velvetleaf [3]; [13]) | Rice plant response rating (rice; [16])
15: Plant response rating, Velvetleaf (velvetleaf [9]; [18])
100: Pigweed plant response rating (pigweed; [14]) | Lambsquarters plant response rating (lambsquarters; [14]) | Pigweed plant response rating (redroot pigweed; [19])
85: Foxtail, Giant plant response rating (giant foxtail [2]; [19]) | Plant response rating, Pigweed (redroot pigweed; [19])
20: Plant response rating, Foxtail, Giant (giant foxtail [2]; [18]) | Plant response rating, Velvetleaf (velvetleaf [3]; [15]) | Barnyardgrass plant response rating (barnyardgrass [4]; [17]) | Plant response rating, Barnyardgrass (barnyardgrass [4]; [13]) | Plant response rating, Blackgrass (blackgrass; [13]) | Morningglory plant response rating (morningglory [7]; [20]) | Foxtail, Giant plant response rating (giant foxtail [8]; [17]) | Plant response rating, Velvetleaf (velvetleaf [9]; [19]) | Velvetleaf plant response rating (velvetleaf [9]; [20]) | Oat, Wild plant response rating (wild oat; [17]) | Plant response rating, Oat, Wild (wild oat; [13]) | Crabgrass, Large plant response rating (large crabgrass [12]; [17]) | Plant response rating, Crabgrass, Large (large crabgrass [12]; [13]) | Crabgrass, Large plant response rating (large crabgrass [12]; [14])
0: Plant response rating, Foxtail, Giant (giant foxtail [8]; [15]) | Cocklebur plant response rating (cocklebur; [14])
75: Barnyardgrass plant response rating (barnyardgrass [5]; [19])
50: Velvetleaf plant response rating (velvetleaf [3]; [14]) | Surinam Grass plant response rating (Surinam grass; [14]) | Plant response rating, Cocklebur (cocklebur; [13])
90: Plant response rating, Pigweed (pigweed; [13]) | Plant response rating, Pigweed (pigweed; [15]) | Plant response rating, Lambsquarters (lambsquarters; [13]) | Ducksalad plant response rating (ducksalad; [16]) | Velvetleaf plant response rating (velvetleaf [9]; [19])
30: Plant response rating, Wheat (wheat; [13]) | Plant response rating, Foxtail, Giant (giant foxtail [8]; [13]) | Foxtail, Giant plant response rating (giant foxtail [8]; [14]) | Cocklebur plant response rating (cocklebur; [17])

CN1Cc2c(NC(=O)c3cc(C(C)(C)C)nn3C)cccc2C1=O [Compound 54]
65: Pigweed plant response rating (redroot pigweed; [19])
15: Foxtail, Giant plant response rating (giant foxtail [2]; [19]) | Morningglory plant response rating (morningglory [7]; [19]) | Plant response rating, Crabgrass, Large (large crabgrass [10]; [19])
35: Crabgrass, Large plant response rating (large crabgrass [10]; [19])
5: Plant response rating, Foxtail, Giant (giant foxtail [2]; [19]) | Barnyardgrass plant response rating (barnyardgrass [5]; [20]) | Plant response rating, Velvetleaf (velvetleaf [9]; [19])
10: Pigweed plant response rating (pigweed; [21]) | Plant response rating, Foxtail, Giant (giant foxtail [2]; [18]) | Plant response rating, Barnyardgrass (barnyardgrass [5]; [18]) | Plant response rating, Barnyardgrass (barnyardgrass [5]; [19]) | Pigweed plant response rating (redroot pigweed; [20]) | Corn plant response rating (corn; [22]) | Plant response rating, Morningglory (morningglory [7]; [19]) | Plant response rating, Crabgrass, Large (large crabgrass [10]; [18]) | Morningglory plant response rating (morningglory [11]; [22]) | Cocklebur plant response rating (cocklebur; [21]) | Cocklebur plant response rating (cocklebur; [22])
25: Barnyardgrass plant response rating (barnyardgrass [5]; [19]) | Crabgrass, Large plant response rating (large crabgrass [10]; [20])
40: Lambsquarters plant response rating (lambsquarters; [21]) | Lambsquarters plant response rating (lambsquarters; [22])
0: Pigweed plant response rating (pigweed; [22]) | Sedge, Umbrella plant response rating [1, 16] | Foxtail, Giant plant response rating (giant foxtail [2]; [20]) | Velvetleaf plant response rating (velvetleaf [3]; [21]) | Velvetleaf plant response rating (velvetleaf [3]; [22]) | Barnyardgrass plant response rating (barnyardgrass [4]; [21]) | Barnyardgrass plant response rating (barnyardgrass [4]; [22]) | Wheat plant response rating (wheat; 250 g ai/ha, scale 0 to 100, 0 no effect, 100 complete control, preemergence) | Wheat plant response rating (wheat; [21]) | Wheat plant response rating (wheat; [22]) | Barnyardgrass plant response rating (barnyardgrass [6]; [16]) | Ducksalad plant response rating (ducksalad; [16]) | Blackgrass plant response rating (blackgrass; [21]) | Blackgrass plant response rating (blackgrass; [22]) | Surinam Grass plant response rating (Surinam grass; [22]) | Plant response rating, Morningglory (morningglory [7]; [18]) | Morningglory plant response rating (morningglory [7]; [20]) | Foxtail, Giant plant response rating (giant foxtail [8]; [21]) | Foxtail, Giant plant response rating (giant foxtail [8]; [22]) | Velvetleaf plant response rating (velvetleaf [9]; [20]) | Velvetleaf plant response rating (velvetleaf [9]; [19]) | Oat, Wild plant response rating (wild oat; [21]) | Oat, Wild plant response rating (wild oat; [22]) | Rice plant response rating (rice; [16]) | Crabgrass, Large plant response rating (large crabgrass [12]; [21]) | Crabgrass, Large plant response rating (large crabgrass [12]; [22])
20: Plant response rating, Pigweed (redroot pigweed; [18]) | Plant response rating, Pigweed (redroot pigweed; [19])

Cc1nn(C(C)(C)C)nc1C(=O)Nc1cccc(C(=O)N2CC=CC2)n1 [Compound 441]
10: Cocklebur plant response rating (cocklebur; [23]) | Cocklebur plant response rating (cocklebur; [24])
30: Wheat plant response rating (wheat; 500 g ai/ha, scale 0 to 100, 0 no effect, 100 complete control, preemergence) | Wheat plant response rating (wheat; [23]) | Corn plant response rating (corn; [23]) | Oat, Wild plant response rating (wild oat; [24])
20: Pigweed plant response rating (pigweed; [23]) | Pigweed plant response rating (pigweed; [24]) | Lambsquarters plant response rating (lambsquarters; [23]) | Lambsquarters plant response rating (lambsquarters; [24]) | Wheat plant response rating (wheat; [24]) | Blackgrass plant response rating (blackgrass; [24])
0: Sedge, Umbrella plant response rating ([1]; 125 g ai/ha) | Velvetleaf plant response rating (velvetleaf [3]; [23]) | Velvetleaf plant response rating (velvetleaf [3]; [24]) | Barnyardgrass plant response rating (barnyardgrass [4]; [17]) | Barnyardgrass plant response rating (barnyardgrass [4]; [23]) | Barnyardgrass plant response rating (barnyardgrass [6]; 125 g ai/ha) | Ducksalad plant response rating (ducksalad; 125 g ai/ha) | Surinam Grass plant response rating (Surinam grass; [23]) | Surinam Grass plant response rating (Surinam grass; [24]) | Corn plant response rating (corn; [24]) | Foxtail, Giant plant response rating (giant foxtail [8]; [23]) | Foxtail, Giant plant response rating (giant foxtail [8]; [24]) | Morningglory plant response rating (morningglory [11]; [23]) | Morningglory plant response rating (morningglory [11]; [24]) | Rice plant response rating (rice; 125 g ai/ha) | Crabgrass, Large plant response rating (large crabgrass [12]; [23]) | Crabgrass, Large plant response rating (large crabgrass [12]; [24])
40: Blackgrass plant response rating (blackgrass; [23]) | Oat, Wild plant response rating (wild oat; [23])
